The text below walks through data of patent US9567586B2, “EpCAM aptamer for detection of cancer stem cells” (DEAKIN UNIVERSITY, priority 2012, dated 2017).

One data set concerns HT-29 tumor sphere. Put plainly: Penetration and retention in HT-29 tumor sphere (confocal microscopy). Type of data set: cell-based, human. The conditions noted are these: for penetration into tumor sphere: 100 nM, 0.5-4 h incubation, sphere ~300-400 μm; for fluorescence signal retained in tumor sphere: 4 h incubation, wash, further 24 h in culture medium. As to the method:
HT-29 or HEK293T cells were cultured in stem cell culture medium (DMEM/F12 with 20 ng/ml EGF and FGF and B27). […] After incubating for 0.5, 1, 2 or 4 h, the spheres were washed twice with PBS and imaged via fluorescence confocal microscopy. A phase contrast image of the sphere was also taken for each sample. Panel A fluorescence image for antibody EpCAM, Panel B phase contrast image for tumor sphere. Panel C: fluorescence image for aptamer EpCAM 23, Panel D: phase contrast image for tumor sphere. Panel E: fluorescence image aptamer control, Panel F: phase contrast image for tumor sphere.
Tumour spheres were incubated with EpCAM antibody, aptamer-23 or control aptamer for 4 h. After washing with PBS twice, the tumor spheres were incubated with the culture medium for a further 24 h followed by confocal microscopy. Panel A: fluorescence image for antibody or aptamer. Panel B: phase contrast image for tumour sphere.
To study the ability of EpCAM aptamer or antibody to penetrate tumors, the inventors used a three-dimensional in vitro tumor sphere model. […] After incubating for the indicated time, the spheres were washed twice with PBS and imaged via fluorescence confocal microscopy. A phase contrast image of the sphere was also taken for each sample. […] A retention study was performed whereby the tumour spheres were incubated with EpCAM antibody, aptamer-23 or control aptamer for 4 h, after washing with PBS twice, the tumor spheres were incubated with the culture medium for a further 24 h followed by confocal microscopy.

Data set [1] has as its target T1, native EpCAM expressed on the cell surface (Homo sapiens, UniProt P16422).
T1 construct: host or cells: T47D, MCF7, MDA-MB-231, HT-29 (EpCAM-positive); U118MG (EpCAM-negative control)
T1 sequence (P16422 24-314): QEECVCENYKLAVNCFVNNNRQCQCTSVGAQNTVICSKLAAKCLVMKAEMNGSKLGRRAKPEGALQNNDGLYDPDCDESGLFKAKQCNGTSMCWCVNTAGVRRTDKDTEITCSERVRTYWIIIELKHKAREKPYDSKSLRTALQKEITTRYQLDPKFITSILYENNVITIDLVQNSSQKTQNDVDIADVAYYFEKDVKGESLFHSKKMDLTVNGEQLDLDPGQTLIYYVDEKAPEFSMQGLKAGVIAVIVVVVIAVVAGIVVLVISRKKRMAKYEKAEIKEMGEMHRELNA
Kind of data set: Binding affinities of EpCAM aptamers by flow cytometry. The conditions noted are these: read-out: KD (±SEM). As to the method: (§1) Cells were harvested at 80% confluence with trypsin digestion and resuspended in washing buffer (DPBS with 5 mM MgCl2) and enumerated. Following centrifugation (1000×g for 5 min), the cell pellet was resuspended in assay buffer (DPBS supplemented with 5 mM MgCl2, 0.1 mg/ml tRNA, 0.1 mg/ml salmon sperm DNA, 0.2% [w/v] sodium azide, and 5% FCS) and diluted to 1×10^6/mL. The blocking step was carried out at 4′C. The binding of the aptamers was carried out at 37′C for 30 min or 4′C for 1 h, with the final concentration of magnesium chloride being 2.5 mM in all binding assays.
(§2) The equilibrium dissociation constant (K′d) of successful 2′-fluoropyrimidine RNA aptamer species to native EpCAM expressed on the cell surface was determined using flow cytometry with EpCAM-positive and -negative cell lines and a negative control (2-O-methyl-pyrimidine) aptamer (5′-DY647-mGCmGACUmGmGUUmACCCmGmGUCmGdT-3′) (SEQ ID NO:13). Kato III or U118MG cells (5×10^5) were first incubated with assay buffer followed by two washes with binding buffer prior to incubation with serial concentrations (approximately 10-fold above and below the apparent K′d) of FITC-labelled aptamer in a 100 μL assay buffer for 1 h on ice. The cells were washed three times, resuspended in 150 μL assay buffer containing 2.5 mM MgCl2 and subjected to flow cytometric analyses. The FITC-labelled unselected library was used as another negative control. The mean fluorescence intensity (MFI) of the unselected library was subtracted from that of the aptamer-target cell to generate the MFI of specific binding. The K′d for each aptamer was determined by Scatchard analysis according to the equation: [Bound aptamer]/[aptamer]=−(1/KD)×[bound aptamer]+([T]tol/KD) where [T]tot represents the total target concentration. Design and Generation of EpCAM Aptamer-siRNA Chimera
(§3) The binding affinities of both aptamers have been characterised against all five cell lines used in this study by flow cytometry, and the results are shown in Table 1.
(A flow cytometer gives signals particle by particle.)

Data set [2] relates to native EpCAM expressed on the cell surface. Described as above. More on the design: species or system human. The conditions noted are these: U118MG cells (EpCAM negative); read-out: KD (±SEM). As to the method:
as §1, §2, §3

Like-named read-outs stand apart in the source and are kept apart here.

As to “5′-ACGUAUCCCUUUUCGCGUA-3′ (RNA aptamer, fluorescent dye conjugate used, modifications not given here, further chemistry not given here) [compound 23]”, the “penetration into tumor sphere” value with HT-29 tumor sphere is listed as “could penetrate into the core or center of the tumor sphere”. Besides, the “fluorescence signal retained in tumor sphere” value with HT-29 tumor sphere is “clearly detectable signal”. Further, the “retention by the tumor cells” value in the data set with HT-29 tumor sphere (after 4 h incubation and wash) is “at least 24 hours”. Also, the dissociation constant (Kd) (usually the constant that tells how readily two partners part at equilibrium) in data set [1] (HT29 cells) is 37 ± 23.6 nM; in data set [1] (MCF7 cells), 63.7 ± 40.4 nM; in data set [1] (MDA-MB-231 cells), 86.7 ± 68.5 nM; in data set [1] (T47D cells), 41.2 ± 29.2 nM; in data set [2], > 1000 nM.

On to “5′-DY647-mGCmGACUmGmGUUmACCCmGmGUCmGdT-3′ (GCGACUGGUUACCCGGUCGN; 5' DY647, 2'-O-methyl, 3' dT, further chemistry not given here) [Control]”, for which the “penetration into tumor sphere” value in the data set with HT-29 tumor sphere was “only limited non-specific binding”. For the same substance, the “fluorescence signal retained in tumor sphere” value in the data set on HT-29 tumor sphere is “very weak signal”. Besides, the Kd in data set [1] (HT29 cells) was 837 ± 265 nM; in data set [1] (MCF7 cells), > 1000 nM; in data set [1] (MDA-MB-231 cells), > 1000 nM; in data set [1] (T47D cells), > 1000 nM; in data set [2], > 1000 nM.
